The results in this text go back to US20230312587A1, “PTERIDINONE COMPOUNDS AND USES THEREOF” (Vertex Pharmaceutical Incorporated, priority 2018, published 2023).

The structures appear in SMILES notation. Where two headings read alike, the source gives them in different places.

One test concerns the target Plk1 (Homo sapiens (Human), UniProt P53350). The experiment in a line: PLK1 inhibition assay (radioactive-phosphate incorporation). It is filed as biochemical. The note with it: Ki(app), read-out: PLK1 - 33P.ENZ - CB 10 Ki. As to the method:
Compounds were screened for their ability to inhibit Plk1 using a radioactive-phosphate incorporation assay. Assays were carried out in a mixture of 25 mM HEPES (pH 7.5), 10 mM MgCl2, 25 mM NaCl, and 2 mM DTT. Final substrate concentrations were 20 μM [γ-33P]ATP (35mCi 33P ATP/mmol ATP, Perkin Elmer/Sigma Chemicals) and 9 uM Sam68 protein. Assays were carried out at room temperature in the presence of 15 nM Plk1. An assay stock buffer solution was prepared containing all of the reagents listed above, with the exception of ATP and the test compound of interest. 0.75 μL of DMSO stock containing serial dilutions of the test compound (typically starting from a final concentration of 10 μM with 2-fold serial dilutions—final DMSO concentration 1.5%) was placed in a 384 well plate followed by addition of 25 μL [γ-33P]ATP (final concentration 20 μM). The reaction was initiated by addition of 25 μL of the assay stock buffer solution.
The reaction was stopped after 45 minutes by the addition of 25 μL 30% trichloroacetic acid (TCA) containing 10 mM cold ATP. The entire quenched reaction was transferred to a 384-well glass fiber filter plate (Millipore, Cat no. MZFBNOW50). The plate was washed with 3×5% TCA. After drying, 40 μL of Ultima Gold liquid scintillation cocktail (Perkin Elmer) was added to the well prior to scintillation counting in a PerkinElmer TopCount.
After removing mean background values for all of the data points, Ki(app) data were calculated from non-linear regression analysis of the initial rate data using the Prism software package (GraphPad Prism, GraphPad Software, San Diego California, USA).

The subject of test [1] is β-catenin-TCF-mediated reporter transcription activity in Colo 205 cells. The experiment in a line: Colo 205 reporter assay (TCF/LEF luciferase). The note with it: Colo 205 TCF/LEF luciferase reporter, five hours after addition of compound, read-out: TCF reporter Colo205 IC50. The test is classed as cell-based. The gist of the method:
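Luciferase signal from a TCF/LEF-driven reporter, stably integrated in Colo 205 colon cancer cells, was measured 5 h after compound addition.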
(A reporter such as luciferase makes a cellular process visible.)

The test system of another test is HepG2 XBP1(u)-Luc cells. The experiment in a line: HepG2 XBP1 reporter assay. The test is classed as cell-based. The note with it: 6 h. The method, then: HepG2 hepatoma cells were transduced with a retrovirus encoding the cDNA for unspliced (u) XBP1, which contains a non-processed intron, fused to the cDNA for firefly luciferase. Upon induction of ER stress, the non-processed intron of XBP1(u) is spliced out by active IRE1alpha endonuclease. The resulting spliced (s) XBP1 is now in frame with luciferase which causes the production of active luciferase protein, resulting in bioluminescence
HepG2 XBP1(u)-Luc cells were plated […] Cultured cells with a stably transfected reporter construct were plated at approximately 30,000 cells per well into 96 well multi-well plates for twenty four hours. The testing compounds were then added to the wells in 3-fold serial dilutions using a twenty seven micromolar top concentration. A series of control wells for each cell type received only compound solvent. Six hours after the addition of compound, reporter activity for luciferase was assayed, by addition of the SteadyGlo luminescence reagent (Promega). The reporter luminescence activity was measured using Pherastar plate reader (BMG Labtech). Readings was normalized to DMSO only treated cells, and normalized activities were then used in the IC50 calculations. The HepG2 XBP1 reporter assay data are summarized in Table 47: A<0.6 μM; 0.6 μM≤B<2.0 μM; 2.0 μM≤C<10.0 μM; D≥10.0 μM.

Another test concerns Colo-205 cells. The test can be described thus: Calcium flux assay (FLIPR Calcium 5). The test is classed as cell-based. As to conditions: FLIPR Calcium 5, measured over 36 minutes. The method, then:
Compounds described herein induced ER stress by causing intracellular calcium flux. Calcium flux was measured in Colo-205 cells using the FLTPR® Calcium 5 Assay Kit according to manufacter's protocol (Molecular Devices, Cat. #R8186) on a FLIPR3 system (Molecular Devices). Calcium flux is measured over 36 minutes. The Colo-205 calcium flux assay data are summarized in Table 47: A<0.6 μM; 0.6 μM≤B<2.0 μM; 2.0 μM≤C<10.0 μM; D≥10.0 μM.
In general terms: A change in cytosolic calcium serves as a functional read-out for many receptors and channels.

Test [2] addresses HEK293 membranes over-expressing WFS-1 (Homo sapiens (Human), UniProt O76024). The test can be described thus: Radioligand displacement assay (tritiated Compound 136 probe). The test is classed as binding. The note with it: displacement of tritiated Compound 136. As to the method: Cell pellets were re-suspended in 15 times packed cellular volume in 4° C. hypotonic lysis buffer (10 mM HEPES, pH 7.5 containing 1×Protease inhibitor, 0.5 mM EDTA and 2 mM DTT). Re-suspended cells were homogenized with 6-8 strokes in a dounce homogenizer kept on ice. Lysates were centrifuged at 500×G for 15 minutes at 4° C. without brake to decelerate rotor. Following centrifugation, remove the supernatant to a fresh tube and place on ice (Supernatant 1). Repeat the above steps on the lysed cell pellet using 0.5 the original volume of hypotonic lysis buffer and remove the 500× G supernatant (Supernatant 2) and combine with Supernatant 1. Transfer the combined supernatants to a 45-Ti ultracentrifuge tube and centrifuge at 100,000× G for 30 minutes. Following ultracentrifugation, carefully remove the supernatant and discard. Resuspend the 100,000× G pellet in cold resuspension buffer (10 mM HEPES, pH 7.5, 300 mM NaCl containing 1× Protease inhibitor, 1× EDTA and 2 mM DTT). Centrifuge sample at 500× G for 10 minutes with no brake and remove any cloudy, flocculent material. Resuspend pellet in resuspension buffer to approximately 2 mg/mL of protein concentration for use in radioligand binding assay and immunoblotting.
The binding affinities of compounds were determined by measuring the competitive displacement of a tritiated Compound 136 probe from purified HEK293 membranes over-expressing WFS-1. The data for the radioligand displacement assay are summarized in Table 47: A<0.06 μM; 0.06 μM≤B<0.6 μM; 0.6 μM≤C<3.0 μM; D≥3.0 μM.
The probe Kd was determined by titrating tritiated probe under the standard assay conditions plus and minus excess unlabeled probe and fitting the resulting data to a “One site—Total and nonspecific binding” model in Graphpad Prism, version 6.0, San Diego, CA, US. Initially, 0.25 μl of compound dissolved in DMSO at varying concentrations was dispensed to a 384 well plate. Membrane and probe were both prepared at 2× their final concentration in 1× assay buffer as described above. 25 μL of membrane was added to the wells and incubated for 10 minutes. 25 μL of diluted probe was then added to the wells. The assay was incubated for 90 minutes at room temperature. The entire assay volume was then transferred to Millipore GF/B 384-well plates pretreated with 15 μL 0.5% PEI. The filter plates were washed 3× with 75 μL 25 mM TRIS, ph7.5, 0.1% BSA and then dried overnight. Following addition of 45 μL UltimaGold scintillant, the samples were counted in a Perkin Elmer Topcount. The radioactivity remaining is a measure of bound probe. From the bound probe vs concentration of compound titration curve, the IC50 is determined by fitting the data to a standard 3 parameter IC50 model using either Graphpad Prism, version 6.0, San Diego, CA, US, or using GeneData Analyzer, Basel, Switzerland.
For orientation: In a radioligand displacement assay an active substance lowers the binding of a labelled ligand.

For test [3], the system named is Colo205-TCF/LEF-Luciferase (Luc) tumor. The test can be described thus: In vivo inhibition of TCF/LEF reporter activity in Colo-205 tumors. The arrangement: concentration or dose not given beside the values. The note with it: TCF/LEF luciferase reporter in Colo-205 tumors, nu/nu mice, oral gavage. In a few lines:
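Female nu/nu mice carried subcutaneous Colo205-TCF/LEF-luciferase tumours (200–500 mm^3), n=4 per group. Compound was given by oral gavage in 1:3:5:1 EtOH:DMSO:PEG-400:H2O at 10 ml/kg, with vehicle as control. Luciferase activity in tumour lysates (Steady-Glo) was normalised to BCA protein.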

Plk1, sequence (P53350 whole entry, species assumed): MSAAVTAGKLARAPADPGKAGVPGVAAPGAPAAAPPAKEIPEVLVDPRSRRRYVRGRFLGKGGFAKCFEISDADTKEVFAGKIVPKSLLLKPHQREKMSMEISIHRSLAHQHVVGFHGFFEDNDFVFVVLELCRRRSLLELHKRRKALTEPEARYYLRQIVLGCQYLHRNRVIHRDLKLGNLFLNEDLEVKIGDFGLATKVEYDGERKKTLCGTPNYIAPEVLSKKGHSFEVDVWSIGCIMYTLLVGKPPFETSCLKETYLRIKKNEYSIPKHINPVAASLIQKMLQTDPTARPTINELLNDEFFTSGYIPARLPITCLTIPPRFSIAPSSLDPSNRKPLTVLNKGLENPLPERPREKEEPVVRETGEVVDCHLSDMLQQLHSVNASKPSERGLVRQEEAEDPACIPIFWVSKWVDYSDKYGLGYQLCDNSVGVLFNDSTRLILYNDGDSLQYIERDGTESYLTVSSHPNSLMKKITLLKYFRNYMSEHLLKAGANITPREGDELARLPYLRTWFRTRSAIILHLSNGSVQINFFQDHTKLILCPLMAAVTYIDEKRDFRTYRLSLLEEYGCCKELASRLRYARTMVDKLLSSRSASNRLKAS
HEK293 membranes over-expressing WFS-1, sequence (O76024 whole entry): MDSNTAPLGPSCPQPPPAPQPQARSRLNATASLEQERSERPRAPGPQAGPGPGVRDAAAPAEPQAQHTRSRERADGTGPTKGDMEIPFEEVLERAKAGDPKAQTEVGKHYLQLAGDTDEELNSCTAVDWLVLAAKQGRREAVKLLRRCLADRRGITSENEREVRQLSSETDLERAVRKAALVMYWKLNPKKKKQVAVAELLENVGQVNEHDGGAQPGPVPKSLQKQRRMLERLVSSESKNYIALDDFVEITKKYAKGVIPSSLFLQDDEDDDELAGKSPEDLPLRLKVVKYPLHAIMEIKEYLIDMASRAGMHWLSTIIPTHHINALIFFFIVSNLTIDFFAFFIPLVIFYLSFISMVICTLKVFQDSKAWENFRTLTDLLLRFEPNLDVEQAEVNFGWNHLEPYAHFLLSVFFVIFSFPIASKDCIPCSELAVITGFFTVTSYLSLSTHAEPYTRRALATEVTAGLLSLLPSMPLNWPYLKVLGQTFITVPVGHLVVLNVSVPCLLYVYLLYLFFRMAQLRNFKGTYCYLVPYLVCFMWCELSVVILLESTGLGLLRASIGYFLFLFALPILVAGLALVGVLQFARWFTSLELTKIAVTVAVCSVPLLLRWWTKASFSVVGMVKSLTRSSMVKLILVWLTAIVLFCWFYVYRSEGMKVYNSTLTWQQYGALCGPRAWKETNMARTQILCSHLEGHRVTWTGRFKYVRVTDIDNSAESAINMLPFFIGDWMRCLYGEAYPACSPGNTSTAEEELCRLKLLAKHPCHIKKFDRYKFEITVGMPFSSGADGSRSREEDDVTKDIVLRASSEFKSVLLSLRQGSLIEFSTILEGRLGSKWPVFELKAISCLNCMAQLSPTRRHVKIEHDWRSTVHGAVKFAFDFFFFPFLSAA

Usually IC50 stands for the concentration at which inhibition is half-maximal. In the case of `CCN1C(=O)[C@@](C)(CC)N(CC)c2nc(NCc3cnn(Cc4ccc(F)cc4)c3)ncc21` [Compound 234, (7R)-5,7,8-triethyl-2-(((1-(4-fluorobenzyl)-1H-pyrazol-4-yl)methyl)amino)-7-methyl-7,8-dihydropteridin-6(5H)-one], on Plk1, the Ki is above 4000 nM. In test [1], the IC50 is 300 to 1000 nM.

As for `CC[C@@]1(C)C(=O)N(C)c2cnc(NCc3cnn(Cc4ccc(F)cc4)c3)nc2N1C` [Compound 2, (7S)-7-ethyl-2-(((1-(4-fluorobenzyl)-1H-pyrazol-4-yl)methyl)amino)-5,7,8-trimethyl-7,8-dihydropteridin-6(5H)-one], the Ki at Plk1 is above 4000 nM.

`Cc1nc(NCc2ccc(Oc3ccc(F)cc3)nc2)nc2c1NC(=O)[C@H](C)N2C` [Compound 54, (7S)-2-(((6-(4-fluorophenoxy)pyridin-3-yl)methyl)amino)-4,7,8-trimethyl-7,8-dihydropteridin-6(5H)-one]: the Ki on Plk1 is above 4000 nM. The IC50 in test [1] (Homo sapiens, COLO 205, 5 h) was below 300 nM.

Broadly, the EC50 is the concentration at which the effect is half-maximal. Consider `CC[C@H]1C(=O)Nc2c(C)nc(NCc3cnn(C4CC(F)(F)C4)c3)nc2N1C` [Compound 795, (S)-2-(((1-(3,3-difluorocyclobutyl)-1H-pyrazol-4-yl)methyl)amino)-7-ethyl-4,8-dimethyl-7,8-dihydropteridin-6(5H)-one], for which the IC50 in test [1] (Homo sapiens, COLO 205, 5 h) was below 300 nM; with HepG2 XBP1(u)-Luc cells (Homo sapiens) it was below 600 nM; in test [2], 60 to 600 nM. Also, the EC50 in the test with Colo-205 cells (Homo sapiens, COLO 205, 0.6 h) is below 600 nM.

For the compound `CN1C(=O)C(C)(C)N(C)c2nc(NCc3cnn(Cc4ccc(F)cc4)c3)ncc21` [Compound 224, 2-(((1-(4-fluorobenzyl)-1H-pyrazol-4-yl)methyl)amino)-5,7,7,8-tetramethyl-7,8-dihydropteridin-6(5H)-one], the Ki at Plk1 is above 4000 nM. Besides, in test [1] (Homo sapiens, COLO 205, 5 h), the concentration for half-maximal inhibition (IC50) was below 300 nM.

As to `Cc1nc(NCc2cnn(Cc3ccc(F)cc3)c2)nc2c1NC(=O)C1(CC1)N2C` [Compound 221, 2′-(((1-(4-fluorobenzyl)-1H-pyrazol-4-yl)methyl)amino)-4′,8′-dimethyl-5′,8′-dihydro-6′H-spiro[cyclopropane-1,7′-pteridin]-6′-one], on Plk1, the Ki is above 4000 nM. The IC50 in test [1] (Homo sapiens, COLO 205, 5 h) is below 300 nM.

For `Cc1nc(NCc2cnn(Cc3ccc(C(F)(F)F)o3)c2)nc2c1NC(=O)[C@H](C)N2C` [Compound 192, (7S)-4,7,8-trimethyl-2-(((1-((5-(trifluoromethyl)furan-2-yl)methyl)-1H-pyrazol-4-yl)methyl)amino)-7,8-dihydropteridin-6(5H)-one], the Ki at Plk1 was above 4000 nM. Besides, the IC50 in test [1] (Homo sapiens, COLO 205, 5 h) was below 300 nM.

As to `CC[C@H]1C(=O)N(C)c2cnc(NCc3cnn(Cc4ccc(F)cc4)c3)nc2N1C(C)C` [Compound 32, (7S)-7-ethyl-2-(((1-(4-fluorobenzyl)-1H-pyrazol-4-yl)methyl)amino)-8-isopropyl-5-methyl-7,8-dihydropteridin-6(5H)-one], the Ki at Plk1 was above 4000 nM. The IC50 in test [1] (Homo sapiens, COLO 205, 5 h) lay within 300 to 1000 nM.

For the compound `Cc1nc(N[C@H]2C[C@@H](COc3ccc(C(F)(F)F)nc3)C2)nc2c1NC(=O)[C@H](C(C)C)N2C` (relative stereo) [Compound 551, (S)-7-isopropyl-4,8-dimethyl-2-((cis-3-(((6-(trifluoromethyl)pyridin-3-yl)oxy)methyl)cyclobutyl)amino)-7,8-dihydropteridin-6(511)-one], the IC50 in test [1] is below 300 nM; in test [2], below 60 nM. In the test with Colo-205 cells, the EC50 is below 600 nM. In test [3], the “Percent Remaining Activity at 8 hrs after Dosing” value was 20%.

On to `Cc1nc(N[C@H]2C[C@@H](COc3cnc(C(F)(F)F)nc3)C2)nc2c1NC(=O)[C@H](C(C)C)N2C` [Compound 1417, (S)-7-isopropyl-4,8-dimethyl-2-(((1s,3R)-3-(((2-(trifluoromethyl)pyrimidin-5-yl)oxy)methyl)cyclobutyl)amino)-7,8-dihydropteridin-6(5H)-one], for which the IC50 in test [1] was below 300 nM; in the test on HepG2 XBP1(u)-Luc cells, below 600 nM; in test [2], 60 to 600 nM. Moreover, the EC50 in the test with Colo-205 cells is below 600 nM.

For the compound `Cc1nc(N[C@H]2C[C@H](Oc3cc(F)c(F)cc3F)C2)nc2c1NC(=O)[C@H](C)N2C` [Compound 292, (7S)-4,7,8-trimethyl-2-((trans 3-(2,4,5-trifluorophenoxy)cyclobutyl)amino)-7,8-dihydropteridin-6(5H)-one], the IC50 in test [1] (Homo sapiens, COLO 205, 5 h) was below 300 nM; with HepG2 XBP1(u)-Luc cells (Homo sapiens) it was below 600 nM; in test [2], below 60 nM. In addition, the EC50 in the test on Colo-205 cells (Homo sapiens, COLO 205, 0.6 h) is below 600 nM.

For the compound `CO[C@H](C)[C@H]1C(=O)Nc2c(C)nc(N[C@H]3C[C@@H](COc4ccc(C(F)(F)F)nc4)C3)nc2N1C` [Compound 643, (S)-7-((R)—1-methoxyethyl)-4,8-dimethyl-2-((cis-3-(((6-(trifluoromethyl)pyridin-3-yl)oxy)methyl)cyclobutyl)amino)-7,8-dihydropteridin-6(5H)-one], the IC50 in test [1] (Homo sapiens, COLO 205, 5 h) is below 300 nM; in test [2], below 60 nM. Further, in the test with Colo-205 cells (Homo sapiens, COLO 205, 0.6 h), the concentration giving a half-maximal response (EC50) was below 600 nM. In test [3], the “Percent Remaining Activity at 8 hrs after Dosing” value was 22%.
